Experimental data taken from patent US20140187475A1, “Lantibiotic Compositions and Methods For Preventing or Treating Mastitis” (Medela Holding AG, priority 2012, published 2014).

Tested on: bacteria
Assay: antimicrobial activity of nisin preparations placed on a skin or agar surface
Type: cell-based
Source text: Most important in this embodiment is the principle that nisin must be placed in the external aqueous phase of this preparation. […] In an ointment preparation, it is retained by the lipid phase and fails to dissipate and kill bacteria.

With Nisin the antimicrobial activity (nisin in an ointment preparation with little or no water) was “largely inactive” and the antimicrobial activity (nisin in the external aqueous phase of an oil in water emulsion, placed on a skin or agar surface) was “highly active”.
